# Structures can show the parent of a compound that is named as a salt.
# Test system: murine UVB-induced epidermal hyperplasia model
# Assay: Murine UVB-induced epidermal hyperplasia model: epidermis thickness (H&E histology)
# Type: in vivo, SKH1 mice
# Conditions: UVB 120 mJ/cm^2
# Procedure: The back skin of the SKH1 mice was exposed to 120 mJ/cm^2 UVB using the Biospectra system equipped with UVB sunlamps with a maximum emission peak at 312 nm. Irradiations were performed under isoflurane gaseous anesthesia. Vehicle (PEG400/EtOH/PHY (30/20/50) p/p) or brimonidine at 0.2% or 2% was administered by topical route (100 μl) on a 10 cm^2-area on the back using a micropipette. The area is located on the upper part of the back to prevent the animals from licking themselves. […]
# One hour after the third topical treatment and one hour before euthanasia, mice received an i.p. injection of 5-ethynyl-2′-deoxyuridine (EdU) at 100 mg/kg. […] For epidermal thickness, two sections per animal (7 μm) were stained in H&E. Skin histology and the epidermis thickness were analyzed using image analysis (mScope 3.9, Aurora mScope) on scanned slide pictures (NanoZoomer C9600-12, Hamamatsu Photonics K.K). […] Nuclei were also stained with DAPI (5 mg/ml) diluted in Vectashield Hard Set Mounting medium for fluorescence ref: 1-1400 Vector Laboratories). The number of keratinocyte stained with Alexa Fluor® 594 was counted from digital images (NanoZoomer C9600-12, Hamamatsu Photonics K.K) and the epidermis length of each section determined using an in-house dedicated tool. […]
smiles,measurement,setting,value
"Brc1c(NC2=NCCN2)ccc2nccnc12 [brimonidine tartrate, (5-Bromo-quinoxalin-6-yl)-(4,5-dihydro-1H-imidazol-2-yl)-amine (Brimonidine)]",inhibition of acanthosis (epidermis thickness),"0.2% topical, pre-treatment",no effect
same,inhibition of acanthosis (epidermis thickness),"2% topical, pre-treatment (1 h before UV irradiation, then twice more at 23 hours apart)",−23%

# Reference: patent US20200390762A1, “METHOD OF TREATING HAND-FOOT SYNDROME AND SYMPTOMS ASSOCIATED THEREWITH” (GALDERMA S.A., priority 2014, published 2020)
